{"source": "paper PMC5944846", "about": "(ACS chemical biology, 2018)", "tested_on": "E. coli ATCC 25922", "assay": "MIC against E. coli ATCC 25922", "type": "cell-based", "settings": "Escherichia coli", "note": "Where two headings read alike, the source gives them in different places.", "data": [{"molecule": "CN(C)[C@@H]1C(O)=C(C(N)=O)C(=O)[C@@]2(O)C(O)=C3C(=O)c4c(O)cccc4[C@@](C)(O)[C@H]3[C@H](O)[C@@H]12", "note": "[oxytetracycline]", "values": [{"measurement": "MIC", "setting": "ATCC25922, read-out: oxytetracycline + 32 μg/mL tyrobetaine MIC", "value": 8, "unit": "µg/mL"}, {"measurement": "MIC", "setting": "ATCC25922, read-out: oxytetracycline MIC", "value": 4, "unit": "µg/mL"}]}]}
